In assay [1] the target is T1, Coagulation factor IX (Homo sapiens, UniProt P00740). In words: (§1) Inhibition of human coagulation factor 9a using fluorescent peptide CH3SO2-D-CHG-Gly-Arg-AFC-AcoH as substrate.
In assay [2] the target is T1, Coagulation factor IX. The description is as §1. The source holds these as a separate data set.

This passage reports Ki results from BindingDB's records for doi:10.1016/j.bmcl.2015.04.057 (Merck Research Laboratories, 2015).

T1 sequence (P00740 47-191 limits assumed): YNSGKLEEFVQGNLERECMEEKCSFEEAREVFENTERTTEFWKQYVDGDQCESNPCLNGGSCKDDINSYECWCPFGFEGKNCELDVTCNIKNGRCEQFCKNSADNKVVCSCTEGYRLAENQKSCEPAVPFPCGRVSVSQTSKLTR
T1 sequence (P00740 227-461 limits assumed): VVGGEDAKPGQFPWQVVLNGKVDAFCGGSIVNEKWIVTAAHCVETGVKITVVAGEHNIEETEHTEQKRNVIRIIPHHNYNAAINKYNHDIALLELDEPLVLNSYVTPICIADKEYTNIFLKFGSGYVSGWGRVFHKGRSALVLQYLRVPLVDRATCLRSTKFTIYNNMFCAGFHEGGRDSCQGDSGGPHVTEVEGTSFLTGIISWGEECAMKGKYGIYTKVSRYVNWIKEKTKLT

Usually Ki stands for the dissociation constant of the complex between target and ligand, obtained from inhibition or displacement. For `Cc1cc2nc([C@@H](CNC(=O)c3c(Cl)cc(-n4cnnc4)cc3Cl)c3ccccc3)[nH]c2cc1C`, the Ki in assay [1] was 15 nM; in assay [2], 15.4 nM.
